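Protocol summary: plate cells (96-well), add compound at 5 concentrations, incubate 48 h, interpolate endpoints linearly. Here, GI50 denotes the concentration required for 50% inhibition of growth.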 The source made the active and inactive calls. No stated cut-off is given here; in the data, active = GI50 up to about 1.1 µM and inactive = higher.
Key:
Assay in all cases: NCI anticancer screen, dose series, 48 h
[1] = system: A498
[2] = system: DLD-1
[3] = system: HCT-15
[4] = system: HOP-62
[5] = system: K562
[6] = system: NCI-H460
[7] = system: NCI-H522
[8] = system: SF-295
[9] = system: SF-539
[10] = system: SK-MEL-28
[11] = system: SK-OV-3
[12] = system: SN12C
[13] = system: SNB-75
[14] = system: SNB-78
[15] = system: SW-620
[16] = system: UACC-257
[17] = system: UO-31
[18] = system: DMS-273
[19] = system: BT-549
[20] = system: MCF7

| Structure (SMILES) | GI50 [1] | GI50 [2] | GI50 [3] [µM] | GI50 [4] | GI50 [5] | GI50 [6] | GI50 [7] | GI50 [8] | GI50 [9] | GI50 [10] | GI50 [11] | GI50 [12] | GI50 [13] | GI50 [14] | GI50 [15] | GI50 [16] | GI50 [17] | GI50 [18] | GI50 [19] | GI50 [20] |
| --- | --- | --- | --- | --- | --- | --- | --- | --- | --- | --- | --- | --- | --- | --- | --- | --- | --- | --- | --- | --- |
| O=C(N/C(=C\c1cc(Cl)ccc1Cl)c1nc2cc(Cl)ccc2[nH]1)c1ccccc1 | 21.4 µM (inactive) | 12.8 µM (inactive) | 16.4 | 18 µM (inactive) | 15.5 µM (inactive) | 15.1 µM (inactive) | 12.4 µM (inactive) | 16.1 µM (inactive) | 20.1 µM (inactive) | 17.4 µM (inactive) | 21.5 µM (inactive) | 19.5 µM (inactive) | 19.1 µM (inactive) | 21.7 µM (inactive) | 16.9 µM (inactive) | 15 µM (inactive) | 11.7 µM (inactive) |  |  |  |
| O=C(c1cccs1)N(C(=S)N1CCN(c2ccccn2)CC1)c1ccccc1 |  | > 100 µM (inactive) | 61 | > 100 µM (inactive) | > 100 µM (inactive) | > 100 µM (inactive) | 36.2 µM (inactive) | 80.4 µM (inactive) | > 100 µM (inactive) | > 100 µM (inactive) | > 100 µM (inactive) | > 100 µM (inactive) | > 100 µM (inactive) | > 100 µM (inactive) | > 100 µM (inactive) | 83.2 µM (inactive) | 39.2 µM (inactive) | 82.8 µM (inactive) |  |  |
| COc1ccc(NC(=O)CC(=O)N2N=C(N(CCC#N)c3ccccc3Cl)CC2c2ccccc2)cc1 (stereo unspecified) | > 100 µM (inactive) | > 100 µM (inactive) | > 100 | > 100 µM (inactive) | > 100 µM (inactive) | > 100 µM (inactive) | > 100 µM (inactive) | > 100 µM (inactive) | > 100 µM (inactive) | > 100 µM (inactive) |  | > 100 µM (inactive) | > 100 µM (inactive) | > 100 µM (inactive) | > 100 µM (inactive) | > 100 µM (inactive) | > 100 µM (inactive) | > 100 µM (inactive) |  |  |
| O=C(O)C(CO)NC(=O)n1c2ccccc2c2ccccc21 (stereo unspecified) |  | > 100 µM (inactive) | > 100 | > 100 µM (inactive) | > 100 µM (inactive) | > 100 µM (inactive) | > 100 µM (inactive) | > 100 µM (inactive) | > 100 µM (inactive) | > 100 µM (inactive) | > 100 µM (inactive) | > 100 µM (inactive) |  |  | > 100 µM (inactive) | > 100 µM (inactive) |  | > 100 µM (inactive) |  |  |
| Cc1ccc(Cl)c2c(=O)cc(-c3ccccc3)[nH]c12 |  | > 100 µM (inactive) | 46.2 | 54.3 µM (inactive) | 49.2 µM (inactive) | 36.2 µM (inactive) | 63.7 µM (inactive) | 55.8 µM (inactive) | 80.2 µM (inactive) | > 100 µM (inactive) | > 100 µM (inactive) | 56.4 µM (inactive) | 28.8 µM (inactive) |  | 67.5 µM (inactive) | 58.1 µM (inactive) | 37.9 µM (inactive) | 35.6 µM (inactive) |  |  |
| CCC(=O)CC(=O)CCC(=O)Nc1cc(C)ccc1C | > 100 µM (inactive) | > 100 µM (inactive) | > 100 |  | > 100 µM (inactive) | > 100 µM (inactive) | > 100 µM (inactive) | > 100 µM (inactive) | > 100 µM (inactive) | > 100 µM (inactive) | > 100 µM (inactive) | > 100 µM (inactive) | > 100 µM (inactive) | > 100 µM (inactive) | > 100 µM (inactive) |  | > 100 µM (inactive) |  |  |  |
| CN(C)CCC(O)(c1ccccc1)C(O)(CCN(C)C)c1ccccc1 (stereo unspecified) | > 100 µM (inactive) | > 100 µM (inactive) | > 100 | > 100 µM (inactive) | 48.9 µM (inactive) | > 100 µM (inactive) | > 100 µM (inactive) | 53.7 µM (inactive) |  | > 100 µM (inactive) | > 100 µM (inactive) | > 100 µM (inactive) | 33.1 µM (inactive) | > 100 µM (inactive) | > 100 µM (inactive) | 22.3 µM (inactive) | > 100 µM (inactive) |  |  |  |
| c1ccc2c(c1)CCc1cc3cc4c(nc3nc1-2)-c1ccccc1CC4 |  | > 100 µM (inactive) | > 100 | > 100 µM (inactive) | > 100 µM (inactive) | > 100 µM (inactive) | > 100 µM (inactive) | > 100 µM (inactive) | > 100 µM (inactive) | > 100 µM (inactive) | > 100 µM (inactive) | > 100 µM (inactive) | > 100 µM (inactive) | > 100 µM (inactive) | > 100 µM (inactive) | > 100 µM (inactive) | > 100 µM (inactive) | > 100 µM (inactive) |  |  |
| O=C(O)C1=Cc2cccc3cccc(c23)C1=O | 24.3 µM (inactive) | > 100 µM (inactive) | > 100 | > 100 µM (inactive) | > 100 µM (inactive) | > 100 µM (inactive) | > 100 µM (inactive) | > 100 µM (inactive) |  | > 100 µM (inactive) | > 100 µM (inactive) | > 100 µM (inactive) | > 100 µM (inactive) |  | > 100 µM (inactive) | > 100 µM (inactive) | 81.8 µM (inactive) | > 100 µM (inactive) |  |  |
| COC(=O)[C@@]12OC[C@]34C([C@@H](O)C1O)[C@@]1(C)CC(=O)C(OC(=O)CC(C)C(F)(F)F)=C(C)C1C[C@H]3OC(=O)[C@H](O)[C@H]42 (stereo partly specified) | 0.156 µM (active) |  | > 62.5 | 15 µM (inactive) | 6.05 µM (inactive) | 1.77 µM (inactive) | 3.46 µM (inactive) | 5.16 µM (inactive) | 1.51 µM (inactive) | 1.53 µM (inactive) | 5.24 µM (inactive) | 2 µM (inactive) | 2.11 µM (inactive) | 29.2 µM (inactive) | 1.21 µM (inactive) | 2.93 µM (inactive) | 10.6 µM (inactive) | 0.379 µM (active) |  |  |
| O=C1C=C(c2[nH]c3ccccc3c2C2=CC(=O)c3ccccc3C2=O)C(=O)c2ccccc21 | > 100 µM (inactive) | 57.1 µM (inactive) |  |  | 22.3 µM (inactive) | 35.6 µM (inactive) |  | 36.1 µM (inactive) | 34.8 µM (inactive) | 57 µM (inactive) | 54.1 µM (inactive) |  | 26 µM (inactive) | 32.8 µM (inactive) | 66.5 µM (inactive) |  | > 100 µM (inactive) | 39.2 µM (inactive) |  |  |
| CC1=C(C(=O)Nc2ccccc2C)C(c2ccco2)C(C(=O)Nc2ccccc2C)=C(C)N1C |  | > 100 µM (inactive) |  | > 100 µM (inactive) | 85.5 µM (inactive) | > 100 µM (inactive) | > 100 µM (inactive) | > 100 µM (inactive) | > 100 µM (inactive) | > 100 µM (inactive) | > 100 µM (inactive) | > 100 µM (inactive) |  | > 100 µM (inactive) | > 100 µM (inactive) | > 100 µM (inactive) | > 100 µM (inactive) |  |  |  |
| O=C(NC1C=CCC2C(=O)N(c3ccccc3)C(=O)C12)OCc1ccccc1 (stereo unspecified) |  | > 100 µM (inactive) |  | > 100 µM (inactive) | > 100 µM (inactive) | > 100 µM (inactive) | > 100 µM (inactive) | > 100 µM (inactive) | > 100 µM (inactive) | > 100 µM (inactive) | > 100 µM (inactive) | > 100 µM (inactive) | > 100 µM (inactive) | > 100 µM (inactive) | > 100 µM (inactive) | > 100 µM (inactive) | > 100 µM (inactive) | > 100 µM (inactive) |  |  |
| COC(=O)C1=C(C(=O)OC)C(C(=O)OC)C(C(=O)OC)C(C(=O)OC)(C(=O)OC)C(C(=O)OC)=C1C(=O)OC (stereo unspecified) | 15.5 µM (inactive) | 1.81 µM (inactive) | 8.39 | 32.3 µM (inactive) | 3.4 µM (inactive) | 19 µM (inactive) | 1.96 µM (inactive) | 19.2 µM (inactive) | 17.7 µM (inactive) | 15.1 µM (inactive) | 27 µM (inactive) | 14.3 µM (inactive) | 19.2 µM (inactive) | 18.4 µM (inactive) | 5.08 µM (inactive) | 13.9 µM (inactive) | 16.3 µM (inactive) |  | 18.2 µM (inactive) | 15.4 µM (inactive) |
| CCc1cccc(C)c1NC(C)=O | > 100 µM (inactive) | > 100 µM (inactive) | > 100 | > 100 µM (inactive) | > 100 µM (inactive) | > 100 µM (inactive) |  | > 100 µM (inactive) | > 100 µM (inactive) | > 100 µM (inactive) | > 100 µM (inactive) |  | > 100 µM (inactive) | > 100 µM (inactive) | > 100 µM (inactive) | > 100 µM (inactive) | > 100 µM (inactive) | > 100 µM (inactive) |  |  |
| C/C(=N\NS(=O)(=O)c1ccc(C)cc1)c1cc2ccccc2n1C | > 100 µM (inactive) | > 100 µM (inactive) | > 100 | > 100 µM (inactive) | > 100 µM (inactive) | > 100 µM (inactive) | > 100 µM (inactive) | > 100 µM (inactive) | > 100 µM (inactive) |  |  | 24.2 µM (inactive) | 59.2 µM (inactive) |  | > 100 µM (inactive) | > 100 µM (inactive) | > 100 µM (inactive) | > 100 µM (inactive) |  |  |
| Cc1cc(Cl)ccc1NC(=O)C1C(=O)N(c2ccc(Cl)cc2C)C(=O)/C1=N\NC(N)=S (stereo unspecified) | 23.6 µM (inactive) | 35.3 µM (inactive) | 17.1 | 21.3 µM (inactive) | 23.6 µM (inactive) | 31.6 µM (inactive) | 17.1 µM (inactive) | 29.9 µM (inactive) | 26.1 µM (inactive) | > 10 µM (inactive) |  | 27.4 µM (inactive) |  | 44 µM (inactive) | 29.7 µM (inactive) | 59 µM (inactive) | 17 µM (inactive) | 46.3 µM (inactive) |  |  |
